Common to all, as to format: cell-based, mouse
The subject of experiment [1] is α7 integrin (LacZ reporter in α7+/LacZ myotubes). Put plainly: Myotube α7 integrin FDG assay (Burkin assay in myotubes, 96-well). As to conditions: myotubes.
The test system of experiment [2] is α7 integrin (LacZ reporter in α7βgal+/− myoblasts). The experiment in a line: Myoblast α7+/LacZ integrin FDG assay (Burkin assay in myoblasts, 96-well). Particulars: α7+/LacZ myoblasts, 96-well.
The test system of experiment [3] is β-galactosidase in CMV-LacZ C2C12 myotubes. The experiment in a line: CMV-LacZ secondary screen in C2C12 myotubes (β-Gal stabilizing assay). Particulars: for CMV-LACZ in Myotubes, signal relative to DMSO: C2C12 CMV-LacZ myotubes, fold relative to DMSO; for CMV-LACZ in Myotubes (β-galactosidase activity relative to DMSO): CMV-LacZ C2C12 myotubes, 96-well format. The procedure, abridged:
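First, C2C12 myoblasts were transfected with a linearized CMV-LACZ vector and clonal lines selected by FDG β-gal assay. Then cells were exposed to compounds at 0.5, 1, 5, 10, 20 and 40 μM in 96-well format, two replicates each, and β-gal measured.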

On to `O=[N+]([O-])c1cccc(S(=O)(=O)N2CCN(S(=O)(=O)N3CCOCC3)CC2)c1` [MLS000912614-01], for which the “Burkin Assay in Myotubes (signal relative to DMSO)” value in experiment [1] (0.5 uM) came to 1.042; in experiment [1] (1 uM), 1.024; in experiment [1] (5 uM), 1.103; in experiment [1] (10 uM) it was 1.055; in experiment [1] (20 uM), 0.775; in experiment [1] (40 uM), 0.7855. The “Burkin Assay in Myoblasts, value relative to DMSO” value in experiment [2] (0.5 uM) is recorded as 0.9551; in experiment [2] (1 uM) it was 1.088; in experiment [2] (5 uM), 0.9534; in experiment [2] (10 uM) it was 0.94; in experiment [2] (20 uM), 0.7382; in experiment [2] (40 uM), 0.7798. Moreover, the “CMV-LACZ in Myotubes, signal relative to DMSO” value was determined as 1.018 in experiment [3] (5 uM), 1.166 in experiment [3] (10 uM), 0.97 in experiment [3] (20 uM) and 1.012 in experiment [3] (40 uM).
Consider `CC(C)(C)n1cnc2cc(NC(=O)c3ccco3)ccc21` [MLS001223567-01], for which the “Burkin Assay in Myotubes, α7 integrin LacZ reporter signal relative to DMSO” value is given as 0.9533 in experiment [1] (0.5 uM); 0.9978 in experiment [1] (1 uM); 0.8636 in experiment [1] (5 uM); 0.924 in experiment [1] (10 uM); 0.9991 in experiment [1] (20 uM); 0.9931 in experiment [1] (40 uM). Moreover, the “Burkin Assay in Myoblasts, signal relative to DMSO” value in experiment [2] (0.5 uM) is 1.044; in experiment [2] (1 uM), 1.082; in experiment [2] (5 uM), 0.9608; in experiment [2] (10 uM), 0.9203; in experiment [2] (20 uM), 0.8579; in experiment [2] (40 uM), 0.864. The “CMV-LACZ in Myotubes, signal relative to DMSO” value in experiment [3] (5 uM) came out at 1.002; in experiment [3] (10 uM), 0.8931; in experiment [3] (20 uM) it was 1.241; in experiment [3] (40 uM), 1.012.
For `O=C(COC(=O)Cn1cnc2ccccc21)Nc1cccc([N+](=O)[O-])c1` [MLS001005283-01], the “Burkin Assay in Myotubes, α7 integrin LacZ reporter signal relative to DMSO” value was found to be 0.9811 in experiment [1] (0.5 uM); 0.9951 in experiment [1] (1 uM); 0.8583 in experiment [1] (5 uM); 0.9141 in experiment [1] (10 uM); 0.9432 in experiment [1] (20 uM); 0.7596 in experiment [1] (40 uM). The “Burkin Assay in Myoblasts, signal relative to DMSO” value in experiment [2] (0.5 uM) is reported as 0.8702; in experiment [2] (1 uM), 0.8582; in experiment [2] (5 uM), 0.9346; in experiment [2] (10 uM) it was 0.8908; in experiment [2] (20 uM) it was 0.8965; in experiment [2] (40 uM), 0.9301. Further, the “CMV-LACZ in Myotubes, signal relative to DMSO” value in experiment [3] (5 uM) was found to be 0.9005; in experiment [3] (10 uM) it was 0.9051; in experiment [3] (20 uM), 1.032; in experiment [3] (40 uM), 1.1425.
In the case of `CCS(=O)(=O)N1CCCC(C(=O)c2ccc(OC)cc2C)C1` (centres unmarked) [MLS000693747-01], the “Burkin Assay in Myotubes (signal relative to DMSO)” value in experiment [1] (0.5 uM) stood at 1.061; in experiment [1] (1 uM), 0.7194; in experiment [1] (5 uM), 1.433; in experiment [1] (10 uM), 0.9111; in experiment [1] (20 uM) it was 1.122; in experiment [1] (40 uM) it was 1.0456. In addition, the “Burkin Assay in Myoblasts, value relative to DMSO” value in experiment [2] (0.5 uM) amounted to 1.114; in experiment [2] (1 uM), 1.036; in experiment [2] (5 uM), 1.0596; in experiment [2] (10 uM), 1.088; in experiment [2] (20 uM), 0.8796; in experiment [2] (40 uM), 0.9175. Further, the “CMV-LACZ in Myotubes (β-galactosidase activity relative to DMSO)” value is listed as 0.9962 in experiment [3] (5 uM), 0.9523 in experiment [3] (10 uM), 0.9693 in experiment [3] (20 uM) and 1.043 in experiment [3] (40 uM).
As for `C[C@H](NS(=O)(=O)c1ccc(Cl)cc1)C(=O)OCC(=O)c1ccc[nH]1` [MLS000761297-01], the “Burkin Assay in Myotubes (signal relative to DMSO)” value in experiment [1] (0.5 uM) is recorded as 1.0906; in experiment [1] (1 uM) it was 1.022; in experiment [1] (5 uM), 1.154; in experiment [1] (10 uM), 1.033; in experiment [1] (20 uM), 1.045; in experiment [1] (40 uM), 1.093. The “Burkin Assay in Myoblasts, value relative to DMSO” value came out at 1.0693 in experiment [2] (0.5 uM); 1.071 in experiment [2] (1 uM); 1.121 in experiment [2] (5 uM); 1.055 in experiment [2] (10 uM); 1.072 in experiment [2] (20 uM); 0.9526 in experiment [2] (40 uM). The “CMV-LACZ in Myotubes (β-galactosidase activity relative to DMSO)” value was found to be 0.9911 in experiment [3] (5 uM), 0.8106 in experiment [3] (10 uM), 0.993 in experiment [3] (20 uM) and 0.8829 in experiment [3] (40 uM).
Take `Cl.O=C(CN1CCOCC1)NCc1cc([N+](=O)[O-])ccc1O` [MLS001211976-01]: the “Burkin Assay in Myotubes, α7 integrin LacZ reporter signal relative to DMSO” value stood at 1.032 in experiment [1] (0.5 uM); 1.2336 in experiment [1] (1 uM); 1.241 in experiment [1] (5 uM); 1.199 in experiment [1] (10 uM); 1.099 in experiment [1] (20 uM); 1.1302 in experiment [1] (40 uM). Also, the “Burkin Assay in Myoblasts, signal relative to DMSO” value was determined as 0.9583 in experiment [2] (0.5 uM); 0.946 in experiment [2] (1 uM); 0.9018 in experiment [2] (5 uM); 0.9154 in experiment [2] (10 uM); 0.9417 in experiment [2] (20 uM); 0.8952 in experiment [2] (40 uM). For the same compound, the “CMV-LACZ in Myotubes, signal relative to DMSO” value in experiment [3] (5 uM) was determined as 0.8547; in experiment [3] (10 uM) it was 0.9979; in experiment [3] (20 uM) it was 0.9697; in experiment [3] (40 uM), 1.014.
`Cc1ccc(S(=O)(=O)NC(C)C(=O)NC(C)c2cccs2)cc1` (centres unmarked) [MLS001221867-01]: the “Burkin Assay in Myotubes, α7 integrin LacZ reporter signal relative to DMSO” value in experiment [1] (0.5 uM) was found to be 0.9728; in experiment [1] (1 uM), 0.9422; in experiment [1] (5 uM), 0.9593; in experiment [1] (10 uM) it was 0.9374; in experiment [1] (20 uM), 1.02; in experiment [1] (40 uM) it was 0.9915. Further, the “Burkin Assay in Myoblasts, signal relative to DMSO” value amounted to 1.001 in experiment [2] (0.5 uM); 1.024 in experiment [2] (1 uM); 0.9275 in experiment [2] (5 uM); 0.922 in experiment [2] (10 uM); 0.9616 in experiment [2] (20 uM); 0.8943 in experiment [2] (40 uM). Further, the “CMV-LACZ in Myotubes, signal relative to DMSO” value in experiment [3] (5 uM) turned out to be 0.9954; in experiment [3] (10 uM) it was 0.9834; in experiment [3] (20 uM), 1.0515; in experiment [3] (40 uM), 1.0745.
For the compound `COc1ccccc1-c1coc2c(CN3C(C)CCCC3C)c(O)ccc2c1=O` (centres unmarked) [MLS001163140-01], the “Burkin Assay in Myotubes (signal relative to DMSO)” value in experiment [1] (0.5 uM) was 0.9236; in experiment [1] (1 uM), 1.035; in experiment [1] (5 uM), 0.9282; in experiment [1] (10 uM), 1.1264; in experiment [1] (20 uM) it was 0.9651; in experiment [1] (40 uM) it was 1.011. Also, the “Burkin Assay in Myoblasts, value relative to DMSO” value in experiment [2] (0.5 uM) was found to be 1.019; in experiment [2] (1 uM), 1.217; in experiment [2] (5 uM) it was 0.9966; in experiment [2] (10 uM) it was 1.098; in experiment [2] (20 uM) it was 0.935; in experiment [2] (40 uM), 0.9829. The “CMV-LACZ in Myotubes, signal relative to DMSO” value is 1.029 in experiment [3] (5 uM), 1.061 in experiment [3] (10 uM), 0.9159 in experiment [3] (20 uM) and 1.19 in experiment [3] (40 uM).

The record behind these values is patent US9980943B2, “Methods of treating muscular dystrophy” (BOARD OF REGENTS OF THE NEVADA SYSTEM OF HIGHER EDUCATION, …, priority 2013, dated 2018).
